From ChEMBL document CHEMBL4840343, “Fragment-based lead discovery of indazole-based compounds as AXL kinase inhibitors” (Bioorg Med Chem, 2021) come the findings set out here.

The target in data set [1] is T1, Tyrosine-protein kinase receptor UFO (Homo sapiens, UniProt P30530).
T1 sequence (P30530 whole entry): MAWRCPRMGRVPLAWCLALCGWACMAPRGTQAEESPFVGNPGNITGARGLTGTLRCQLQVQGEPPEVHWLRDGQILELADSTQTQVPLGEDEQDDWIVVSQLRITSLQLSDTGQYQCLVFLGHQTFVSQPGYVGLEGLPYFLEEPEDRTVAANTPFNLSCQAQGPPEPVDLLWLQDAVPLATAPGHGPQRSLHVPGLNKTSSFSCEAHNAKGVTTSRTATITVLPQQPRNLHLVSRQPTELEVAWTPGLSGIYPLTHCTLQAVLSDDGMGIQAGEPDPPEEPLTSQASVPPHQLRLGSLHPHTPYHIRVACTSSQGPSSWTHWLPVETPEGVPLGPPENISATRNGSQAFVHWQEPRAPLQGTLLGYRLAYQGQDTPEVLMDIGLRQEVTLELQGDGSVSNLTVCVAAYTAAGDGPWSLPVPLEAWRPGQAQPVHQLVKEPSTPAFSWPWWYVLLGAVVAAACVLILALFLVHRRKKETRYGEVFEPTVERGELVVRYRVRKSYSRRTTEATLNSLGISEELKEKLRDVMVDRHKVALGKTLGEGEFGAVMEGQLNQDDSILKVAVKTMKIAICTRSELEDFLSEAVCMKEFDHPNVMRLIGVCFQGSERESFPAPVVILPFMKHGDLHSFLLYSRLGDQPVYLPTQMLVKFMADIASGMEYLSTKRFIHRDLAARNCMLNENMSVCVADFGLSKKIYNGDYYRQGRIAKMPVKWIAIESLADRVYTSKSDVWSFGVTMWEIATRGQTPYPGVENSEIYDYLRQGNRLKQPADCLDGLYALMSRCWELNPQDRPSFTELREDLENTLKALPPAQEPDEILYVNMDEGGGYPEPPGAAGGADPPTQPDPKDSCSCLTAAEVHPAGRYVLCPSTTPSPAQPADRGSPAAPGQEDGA
Nature of the data set: Inhibition of Axl (unknown origin) using 5'FAM labeled KKKKEEIYFFF-NH2 peptide as substrate incubated for 1.5 hrs.

Data set [2] has as its target T1, Tyrosine-protein kinase receptor UFO. Nature of the data set: Displacement of K5 tracer from Axl (unknown origin) expressed in human HEK293 cells cotransfected with NanoLuc measured after 2 hrs by NanoBRET assay. It is filed as cell-based. A general note: Bioluminescence resonance energy transfer reports proximity on the nanometre scale.
Data set [3] deals with SK-OV-3. Nature of the data set: Antiproliferative activity against human SK-OV-3 cells as reduction in cell growth measured after 72 hrs by Celltiter-Glo luminescent assay. It is filed as functional. (In ATP-based viability assays light output follows the ATP content of the culture.)
Data set [4] has as its target Tyrosine-protein kinase receptor UFO (Homo sapiens) (UniProt P30530). As to the kind of experiment: Inhibition of Axl in human SK-OV-3 cells assessed as reduction in phosphorylated Axl level measured after 1 hr by Western blot analysis. It is filed as cell-based. Conditions: dose 1-10 µM. Background: A western blot detects proteins with antibodies after separation by electrophoresis.

The target of data set [5] is Receptor-type tyrosine-protein kinase FLT3 (Homo sapiens) (UniProt P36888). As to the kind of experiment: Inhibition of FLT3 (unknown origin).
Receptor-type tyrosine-protein kinase FLT3 (Homo sapiens), sequence (P36888 whole entry): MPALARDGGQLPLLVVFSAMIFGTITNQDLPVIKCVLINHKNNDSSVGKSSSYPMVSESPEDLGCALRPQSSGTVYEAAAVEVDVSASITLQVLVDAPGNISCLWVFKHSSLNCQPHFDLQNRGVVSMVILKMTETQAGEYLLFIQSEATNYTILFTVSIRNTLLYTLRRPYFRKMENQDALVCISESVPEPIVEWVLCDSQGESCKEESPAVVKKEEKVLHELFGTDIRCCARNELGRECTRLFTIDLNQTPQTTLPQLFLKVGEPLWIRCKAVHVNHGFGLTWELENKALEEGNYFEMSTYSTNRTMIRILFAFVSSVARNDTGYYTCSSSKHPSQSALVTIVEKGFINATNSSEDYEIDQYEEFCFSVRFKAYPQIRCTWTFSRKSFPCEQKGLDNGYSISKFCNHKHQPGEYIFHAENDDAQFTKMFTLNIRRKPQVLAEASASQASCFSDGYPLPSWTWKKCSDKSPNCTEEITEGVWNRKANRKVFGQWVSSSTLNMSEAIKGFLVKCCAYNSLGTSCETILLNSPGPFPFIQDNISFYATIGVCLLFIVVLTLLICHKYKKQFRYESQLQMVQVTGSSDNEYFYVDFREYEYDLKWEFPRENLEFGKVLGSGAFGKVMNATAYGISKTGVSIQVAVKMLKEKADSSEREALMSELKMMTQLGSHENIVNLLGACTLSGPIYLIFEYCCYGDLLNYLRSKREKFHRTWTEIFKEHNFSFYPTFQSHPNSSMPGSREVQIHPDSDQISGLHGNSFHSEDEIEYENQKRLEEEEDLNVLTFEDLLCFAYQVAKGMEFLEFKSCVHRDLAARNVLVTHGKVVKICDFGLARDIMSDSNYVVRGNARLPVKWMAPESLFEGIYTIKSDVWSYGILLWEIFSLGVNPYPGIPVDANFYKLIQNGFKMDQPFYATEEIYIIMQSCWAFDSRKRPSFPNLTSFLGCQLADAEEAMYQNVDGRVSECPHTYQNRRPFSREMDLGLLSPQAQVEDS
For data set [6], the target named is MAP kinase-interacting serine/threonine-protein kinase 2 (Homo sapiens) (UniProt Q9HBH9). As to the kind of experiment: Inhibition of MKNK2 (unknown origin).
MAP kinase-interacting serine/threonine-protein kinase 2 (Homo sapiens), sequence (Q9HBH9 whole entry, looked up): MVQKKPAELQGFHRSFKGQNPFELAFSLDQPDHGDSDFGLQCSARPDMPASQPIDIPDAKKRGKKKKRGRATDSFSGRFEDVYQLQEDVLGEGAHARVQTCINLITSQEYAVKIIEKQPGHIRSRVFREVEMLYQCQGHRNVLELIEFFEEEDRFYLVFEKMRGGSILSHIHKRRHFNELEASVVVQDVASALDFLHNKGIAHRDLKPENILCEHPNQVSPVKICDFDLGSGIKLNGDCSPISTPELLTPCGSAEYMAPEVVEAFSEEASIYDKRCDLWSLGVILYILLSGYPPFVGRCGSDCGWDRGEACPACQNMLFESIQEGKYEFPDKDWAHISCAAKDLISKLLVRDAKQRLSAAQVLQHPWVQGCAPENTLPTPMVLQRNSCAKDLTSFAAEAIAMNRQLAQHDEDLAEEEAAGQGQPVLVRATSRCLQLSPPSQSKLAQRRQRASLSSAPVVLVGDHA
Data set [7] has as its target Proto-oncogene tyrosine-protein kinase receptor Ret (Homo sapiens) (UniProt P07949). Nature of the data set: Inhibition of RET (unknown origin).
Data set [8] is described as follows: Distribution coefficient, logD of compound at pH 7.4. Conditions: octanol/water. It counts as physicochemical.
Data set [9] in a line: Intrinsic clearance in mouse liver microsomes. It counts as ADME, Microsome. The note with it: read-out: CLH.
A short description of data set [10]: Intrinsic clearance in human liver microsomes. It counts as ADME, Microsome. The note with it: read-out: CLH.
The nature of data set [11]: Thermodynamic solubility of compound at pH 7.4. It is filed as physicochemical. The note with it: buffer, read-out: Therm_solubility.
Data set [12] can be described thus: Permeability across apical to basolateral side in human Caco-2 cells. It counts as ADME, cell-based. Conditions: read-out: permeability.
Data set [13] is described as follows: Permeability across basolateral to apical side in human Caco-2 cells. It is filed as ADME, cell-based. The note with it: read-out: permeability.
Data set [14] is described as follows: Efflux ratio of permeability in human Caco-2 cells. It counts as ADME, cell-based.
Data set [15] in a line: AUC (0 to infinity) in mouse at 5 mg/kg, po. It is filed as ADME, organism-based. Further details: route oral, time infinity, dose 5 mg/kg. Conditions: in vivo.
Data set [16] in a line: Half life in mouse at 5 mg/kg, po. It is filed as ADME, organism-based. The note with it: in vivo.
Data set [17] in a line: Tmax in mouse at 5 mg/kg, po. The note with it: in vivo. It is filed as ADME, organism-based.
Data set [18] in a line: Cmax in mouse at 5 mg/kg, po. It is filed as ADME, organism-based. Further details: route oral, dose 5 mg/kg. Conditions: in vivo.
Data set [19] deals with Tyrosine-protein kinase receptor UFO (Homo sapiens) (UniProt P30530). Nature of the data set: Inhibition of Axl in human SK-OV-3 cells assessed as reduction in phosphorylated ERK1/2 level at 1 to 10 uM measured after 1 hr by Western blot analysis. It is filed as cell-based. Conditions: dose 1-10 µM.

The structures appear in SMILES notation. Converted amounts (≈) assume the structure as drawn. The source made the active and inactive calls. No cut-off for these calls is given here.

Proto-oncogene tyrosine-protein kinase receptor Ret (Homo sapiens), sequence (P07949 whole entry): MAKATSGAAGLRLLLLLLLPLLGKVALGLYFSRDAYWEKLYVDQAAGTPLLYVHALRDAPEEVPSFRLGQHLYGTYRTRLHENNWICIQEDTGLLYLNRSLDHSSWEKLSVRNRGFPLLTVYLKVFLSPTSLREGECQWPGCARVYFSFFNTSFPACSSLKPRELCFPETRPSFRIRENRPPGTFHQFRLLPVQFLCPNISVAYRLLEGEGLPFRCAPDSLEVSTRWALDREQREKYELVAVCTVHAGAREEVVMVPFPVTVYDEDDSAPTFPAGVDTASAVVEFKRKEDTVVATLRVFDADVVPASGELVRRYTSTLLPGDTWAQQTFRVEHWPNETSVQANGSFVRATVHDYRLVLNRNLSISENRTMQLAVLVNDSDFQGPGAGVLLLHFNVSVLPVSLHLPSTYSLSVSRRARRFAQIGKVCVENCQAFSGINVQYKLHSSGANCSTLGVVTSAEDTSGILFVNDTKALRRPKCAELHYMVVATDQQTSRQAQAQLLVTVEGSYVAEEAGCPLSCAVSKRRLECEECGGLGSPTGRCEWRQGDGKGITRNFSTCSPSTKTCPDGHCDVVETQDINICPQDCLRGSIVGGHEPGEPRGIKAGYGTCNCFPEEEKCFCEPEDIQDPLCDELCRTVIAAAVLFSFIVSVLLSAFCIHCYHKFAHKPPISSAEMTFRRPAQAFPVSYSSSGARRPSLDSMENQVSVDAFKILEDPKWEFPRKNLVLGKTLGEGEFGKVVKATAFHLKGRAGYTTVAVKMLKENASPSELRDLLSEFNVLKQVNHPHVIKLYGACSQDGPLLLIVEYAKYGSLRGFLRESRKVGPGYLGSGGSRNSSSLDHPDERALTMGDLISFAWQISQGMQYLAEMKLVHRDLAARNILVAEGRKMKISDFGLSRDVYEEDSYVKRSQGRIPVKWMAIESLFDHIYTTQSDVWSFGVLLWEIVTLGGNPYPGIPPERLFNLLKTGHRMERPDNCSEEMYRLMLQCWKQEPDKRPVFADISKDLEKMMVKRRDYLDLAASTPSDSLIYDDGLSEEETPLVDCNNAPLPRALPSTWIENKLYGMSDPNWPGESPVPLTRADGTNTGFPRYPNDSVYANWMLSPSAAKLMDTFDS

Usually IC50 stands for the midpoint of a concentration-inhibition curve. A low value points to higher potency. By GI50 is commonly meant the concentration at which growth is held to half of that of the control. A low value points to greater sensitivity of the cells. One may read the logD as the decadic logarithm of the distribution of all forms, ionised or not, between an organic phase and buffer at a given pH. The low end stands for a more hydrophilic compound, the high end for a more lipophilic compound. As usually defined, the efflux ratio is the permeability from basolateral to apical divided by that in the opposite direction, in the common usage. For orientation: AUC(0-inf) means the area under the concentration-time curve extrapolated to infinity. A lower AUC(0-inf) goes with low exposure. As usually defined, the half-life is the time in which the quantity being followed falls by half. As a reminder, the Tmax is the time at which the peak concentration occurs. As a reminder, the Cmax is the maximum level reached in the sampled fluid or tissue. Turning to `COc1ccc(-n2cc(-c3n[nH]c4cc(Cl)c(N[C@@H]5CCN(C6COC6)C5)cc34)cn2)cc1`, the half-inhibitory concentration (IC50) in [1] is 41.5 µM; in [2] it was 11.4 µM. Moreover, in data set [3], the GI50 amounted to 1.02 µM. Further, in data set [4], the inhibition entry is “Dose-Dependent Effect”. Further, the inhibition entry in data set [5], in [6], in data set [7] and in data set [19] was “Active” in each case. In data set [8], this molecule had a log distribution coefficient (logD) of 4.75. Further, the microsomal CLint in [9] came to 44.8 µL/min/mg; in [10], 129 µL/min/mg. For the same molecule, the solubility thermodynamic in data set [11] is 1.84 µg/mL (≈ 3.96 µM). Further, the Papp A→B in [12] was 15.2 ×10⁻⁶ cm/s. Further, in data set [13], the Papp B→A was 8.41 ×10⁻⁶ cm/s. Also, the efflux ratio in data set [14] was 0.55. The molecule also had a total exposure AUC(0-inf) in data set [15] of 1620 ng·h/mL. In data set [16], this molecule had a half-life of 2.46 h. In addition, the Tmax in [17] came out at 0.25 h. Also, the peak concentration (Cmax) in [18] came out at 460 ng/mL.
